In one data set the test system is TNF-α. The data set can be described thus: Functional experiments: TNF-α release from macrophages (ELISA). Format: cell-based, mouse. The procedure: Macrophages are then challenged with 1 μM PMA in the above medium for 2 hours and then stimulated with different concentrations of (0-1 μM) of 2-chloro-N^6-cyclopentyl adenosine (CCPA) at 37° C. for 1-6 hours. The supernatant is collected and the TNF-α levels are estimated by commercially available ELISA kits (R & D Systems, Minneapolis, Minn.).

In data set [1] the test system is A375 human melanoma tumor cells. Put plainly: In vitro cytotoxicity (51Cr release), primed and activated human macrophages against A375 cells. The settings on record: human macrophages (SC hematopoietic cell line and a healthy volunteer); priming with PMA (1 μm), activation with CCPA (1 μm).
Procedure: (§1) B-16 melanoma cells are washed with serum free RPMI medium by centrifugation. 25-30 μCi of Na ^51Cr is diluted to 1 ml of RPMI and transferred to the melanoma cells suspension. The melanoma cells are incubated with Na ^51Cr at 37° C. for 1 hour. The unincorporated radioactivity is removed by centrifugation at 1000×g for 10 minutes. The melanoma cells are allowed to leak for 2 hours and then washed again. The final suspension is diluted in RPMI. The cell number is counted in a hemocytometer.
(§2) Macrophages are washed with medium containing 100 mM MgCl2, 2 U/ml adenosine deaminase and 10% fetal bovine serum. Macrophages are then challenged with 1 μM PMA in the above medium for 2 hours and then stimulated with different concentrations of (0-1 μM) of 2-chloro-N^6-cyclopentyl adenosine (CCPA) for 30 minutes. The macrophages are then incubated with ^51Cr-labelled B-16 melanoma cells at a ratio of 20:1. Six hours later, a fraction of the supernatant is aspirated and counted in a gamma counter.
(§3) Total releasable counts are measured by lysing the melanoma cells in hypotonic medium.
(§4) The results are expressed as percentage (%) ^51Cr release as follows: [formula]
In data set [2] the test system is mouse B-16 melanoma cells. The data set can be described thus: In vitro cytotoxicity (51Cr release), primed and activated mouse macrophages against B-16 melanoma cells. The settings on record: priming with PMA (1 μm), activation with CCPA (lam).
Procedure: as §1, §2, §3, §4
Percentage ^51 Cr release is a measure of the lysing of cells (i.e., killing of cells), and is therefore an indicia of cytotoxicity.
Data set [3] has as its system mouse P815 mastocytoma tumor cells. Put plainly: In vitro cytotoxicity (51Cr release), primed and activated mouse macrophages against P815 cells. The settings on record: mouse macrophages (IC-21); priming with PMA (1 μM), activation with CCPA (1 μM).
Procedure: as §1, §2, §3, §4
This same protocol is repeated, except that P815 mouse mastocytoma tumor cells are used instead of the B-16 melanoma cells.
Another data set deals with T1, A1 adenosine receptors (Mus musculus, UniProt Q60612).
T1 sequence (Q60612 1-326): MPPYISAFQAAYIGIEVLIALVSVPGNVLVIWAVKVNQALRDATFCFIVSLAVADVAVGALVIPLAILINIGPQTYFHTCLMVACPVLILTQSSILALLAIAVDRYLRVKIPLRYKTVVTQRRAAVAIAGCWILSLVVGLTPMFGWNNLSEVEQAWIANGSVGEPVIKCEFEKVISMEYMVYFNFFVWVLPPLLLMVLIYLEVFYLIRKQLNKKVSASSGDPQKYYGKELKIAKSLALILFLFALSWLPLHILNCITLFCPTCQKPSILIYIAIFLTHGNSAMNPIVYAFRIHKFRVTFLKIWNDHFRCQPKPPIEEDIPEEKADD
Put plainly: Competition experiments  against 125I-BWA844U in macrophage membranes. The format is binding. On the procedure:
Non-specific binding is determined in presence of 1 mM theophylline. Membrane bound radioactivity is separated by filtration over a cell harvester. The data is analyzed by non-linear regression analysis using GraphPad prism software and the Ki value is calculated.

The subject of data set [4] is normal murine bone marrow cells. The note with it: cited from earlier work.
The test system of data set [5] is LNCaP prostate carcinoma cells. The settings on record: cited from earlier work.
Another data set concerns Nb2 lymphoma. The note with it: cited from earlier work.
A further data set deals with K-562 leukemia. The settings on record: cited from earlier work.
Data set [6] deals with T2, A1 adenosine receptor expression (Homo sapiens, UniProt P30542).
T2 construct: This same protocol is repeated using membranes from human macrophages (SC cells)
T2 sequence (P30542 1-326): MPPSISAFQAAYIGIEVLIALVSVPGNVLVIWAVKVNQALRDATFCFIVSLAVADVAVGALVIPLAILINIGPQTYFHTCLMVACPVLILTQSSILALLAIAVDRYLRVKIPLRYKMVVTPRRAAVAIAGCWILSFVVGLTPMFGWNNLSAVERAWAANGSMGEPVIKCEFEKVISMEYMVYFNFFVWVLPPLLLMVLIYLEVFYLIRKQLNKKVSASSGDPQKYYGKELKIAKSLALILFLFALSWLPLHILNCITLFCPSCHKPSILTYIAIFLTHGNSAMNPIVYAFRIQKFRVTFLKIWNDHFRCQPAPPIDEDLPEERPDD
Put plainly: Saturation binding in human macrophages (SC) after cisplatin treatment. Format: cell-based. The note with it: human macrophages (SC, ATCC); cisplatin 2.5 μM for 24 hours. On the procedure: Incubation of the macrophage fractions with the A1 adenosine receptor ligand ^125I-BWA844U (see Patel et al., J. Pharmacol. Exp. Ther. 33:585 (1988) in concentrations ranging from 1.25-20 nM was carried out at 37° C. for 1 hour. Non-specific binding is determined in the presence of 1 mM theophylline. Following incubation, membrane bound radioactivity is separated by filtration over a cell harvester and counted in a gamma counter. The data is analyzed by non-linear regression using GraphPad Prism software. Thc Bmax and kd values are calculated from the analyzed data.
This same protocol is repeated using membranes from human macrophages (SC cells).

The source of these data is patent US20030129678A1, “Methods, pharmaceutical formulations and kits for identification of subjects at risk for cancer” (priority 1999, published 2003).

On to `OC[C@H]1O[C@@H](n2cnc3c(NC4CCCC4)nc(Cl)nc32)[C@H](O)[C@@H]1O` [CCPA, 2-chloro-N^6-cyclopentyladenosine], for which the “TNF-α release in WBC264-9C macrophages compared with IC-21 macrophages” value in the data set on TNF-α (priming with PMA 1 μM, activation with CCPA 0-1 μM, 1-6 hours) is “lower”. Moreover, in data set [1], the “cytotoxicity to A375 human melanoma tumor cells” value is recorded as “cytotoxic”. Further, the “cytotoxicity of mouse B-16 melanoma cells” value in data set [2] (macrophages from LPS-resistant mice (WBC264-9C, ATCC)) is reported as 20%; in data set [2] (macrophages from LPS-sensitive mice (IC-21, ATCC)), 50%. Moreover, the “cytotoxicity for mouse P815 mastocytoma tumor cells” value in data set [3] is recorded as “cytotoxic”.

For the compound “MCP-1: human recombinant monocyte chemotactic protein, chemoattractive for monocytes”, the “affinity (Ki) in membranes from WBC264-9C macrophages compared with IC-21 macrophages” value in the data set with A1 adenosine receptors (competition with 0.1-0.2 nM 125I-BWA844U) was “lower”.

Turning to `Nc1ncnc2c1ncn2[C@@H]1O[C@H](CO)[C@@H](O)[C@H]1O` [adenosine], the proliferation entry in data set [4] is “stimulating proliferation”. The tumor cell growth result (in data set [5]; with Nb2 lymphoma; in the data set with K-562 leukemia) was “inhibits tumor cell growth” throughout.

As to `N.N.[Cl][Pt][Cl]` [cisplatin], the “effect of pretreatment on TNF-α release from WBC264-9C macrophages” value in the data set with TNF-α (cisplatin 2.5 μM for 24 hours, then PMA and CCPA) is listed as “increases TNF-α release”. For the same compound, the “increase of A1 adenosine receptor expression (Bmax)” value in data set [6] is on record as “approximately three-fold”. The “effect of pretreatment on affinity of WBC264-9C macrophage membranes for MCP-1” value on A1 adenosine receptors (cisplatin 2.5 μM for 24 hours) was “increases the affinity”.
